From ChEMBL document CHEMBL6092193, “Identification of furo[2,3-d]pyrimidin-4-ylsulfanyl-1,3,4-thiadiazole derivatives as novel FLT3-ITD inhibitors” (Eur J Med Chem, 2024)
Calls of active or inactive are those of the source. No cut-off for these calls is given here.

Columns and labels:
[1] = target: Receptor-type tyrosine-protein kinase FLT3 (Homo sapiens, UniProt P36888, ITD); assay: biochemical; type: cell-based, Sf9
[2] = Selectivity ratio of GI50 for antiproliferative activity against human MV4-11 cells to GI50 for antiproliferative activity against human MOLM-13 cells
MV4-11 [3] = type: functional, Homo sapiens; conditions: dose 3.2 nM; time 24 hrs
MV4-11 [4] = assay: Induction of cell cycle arrest in human MV4-11 cells assessed as proportion of cells at subG1 phase at 3.2 nM incubated for 24 hrs by PI staining based flow cytometry (reference value: 10.44%); type: functional
MV4-11 [5] = type: functional, Homo sapiens; conditions: dose 16 nM; time 24 hrs
MV4-11 [6] = assay: Induction of cell cycle arrest in human MV4-11 cells assessed as proportion of cells at S phase at 16 nM incubated for 24 hrs by PI staining based flow cytometry (reference value: 25.97%); type: functional
MV4-11 [7] = assay: Induction of cell cycle arrest in human MV4-11 cells assessed as proportion of cells at S phase at 80 nM incubated for 24 hrs by PI staining based flow cytometry (reference value: 25.97%); type: functional
MV4-11 [8] = assay: Induction of cell cycle arrest in human MV4-11 cells assessed as proportion of cells at subG1 phase at 80 nM incubated for 24 hrs by PI staining based flow cytometry (reference value: 10.44%); type: functional
MV4-11 [9] = assay: Induction of cell cycle arrest in human MV4-11 cells assessed as proportion of cells at S phase at 400 nM incubated for 24 hrs by PI staining based flow cytometry (reference value: 25.97%); type: functional
MV4-11 [10] = assay: Induction of cell cycle arrest in human MV4-11 cells assessed as proportion of cells at S phase at 2000 nM incubated for 24 hrs by PI staining based flow cytometry (reference value: 25.97%); type: functional
MV4-11 [11] = assay: Induction of cell cycle arrest in human MV4-11 cells assessed as proportion of cells at subG1 phase at 2000 nM incubated for 24 hrs by PI staining based flow cytometry (reference value: 10.44%); type: functional
HL-60 [12] = assay: Induction of cell cycle arrest in human HL-60 cells assessed as proportion of cells at S phase at 3.2 nM incubated for 24 hrs by PI staining based flow cytometry (reference value: 36.12%); type: functional
HL-60 [13] = assay: Induction of cell cycle arrest in human HL-60 cells assessed as proportion of cells at G1 phase at 16 nM incubated for 24 hrs by PI staining based flow cytometry (reference value: 49.36%); type: functional
HL-60 [14] = assay: Induction of cell cycle arrest in human HL-60 cells assessed as proportion of cells at G2/M phase at 80 nM incubated for 24 hrs by PI staining based flow cytometry (reference value: 14.52%); type: functional
HL-60 [15] = assay: Induction of cell cycle arrest in human HL-60 cells assessed as proportion of cells at subG1 phase at 80 nM incubated for 24 hrs by PI staining based flow cytometry (reference value: 6.94%); type: functional
HL-60 [16] = assay: Induction of cell cycle arrest in human HL-60 cells assessed as proportion of cells at S phase at 400 nM incubated for 24 hrs by PI staining based flow cytometry (reference value: 36.12%); type: functional
HL-60 [17] = assay: Induction of cell cycle arrest in human HL-60 cells assessed as proportion of cells at G2/M phase at 400 nM incubated for 24 hrs by PI staining based flow cytometry (reference value: 14.52%); type: functional
HL-60 [18] = assay: Induction of cell cycle arrest in human HL-60 cells assessed as proportion of cells at G1 phase at 2000 nM incubated for 24 hrs by PI staining based flow cytometry (reference value: 49.36%); type: functional
HL-60 [19] = assay: Induction of cell cycle arrest in human HL-60 cells assessed as proportion of cells at S phase at 2000 nM incubated for 24 hrs by PI staining based flow cytometry (reference value: 36.12%); type: functional
HL-60 [20] = assay: Induction of cell cycle arrest in human HL-60 cells assessed as proportion of cells at subG1 phase at 2000 nM incubated for 24 hrs by PI staining based flow cytometry (reference value: 6.94%); type: functional
[21] = target: Receptor-type tyrosine-protein kinase FLT3 (Homo sapiens) (UniProt P36888); assay: Inhibition of FLT3 in human MV4-11 cells assessed as inhibition of FLT3 autophosphorylation at Tyr589/591 residues incubated for 1 hr by immunoblot analysis; type: cell-based; conditions: dose lower […], dose upper 2000.0 nM
[22] = system: Receptor-type tyrosine-protein kinase FLT3 (Homo sapiens), P36888 [UNDEFINED MUTATION]; assay: Inhibition of FLT3-ITD mutant (unknown origin) expressed in mouse BaF3 cells assessed as inhibition of FLT3 autophosphorylation at Tyr589/591 residues at 16 to 2000 nM incubated for 2 hrs by immunoblot analysis; type: cell-based; conditions: dose lower […], dose upper 2000.0 nM
[23] = target: T1, Receptor-type tyrosine-protein kinase FLT3 (Homo sapiens, UniProt P36888)
T1 sequence (P36888 whole entry): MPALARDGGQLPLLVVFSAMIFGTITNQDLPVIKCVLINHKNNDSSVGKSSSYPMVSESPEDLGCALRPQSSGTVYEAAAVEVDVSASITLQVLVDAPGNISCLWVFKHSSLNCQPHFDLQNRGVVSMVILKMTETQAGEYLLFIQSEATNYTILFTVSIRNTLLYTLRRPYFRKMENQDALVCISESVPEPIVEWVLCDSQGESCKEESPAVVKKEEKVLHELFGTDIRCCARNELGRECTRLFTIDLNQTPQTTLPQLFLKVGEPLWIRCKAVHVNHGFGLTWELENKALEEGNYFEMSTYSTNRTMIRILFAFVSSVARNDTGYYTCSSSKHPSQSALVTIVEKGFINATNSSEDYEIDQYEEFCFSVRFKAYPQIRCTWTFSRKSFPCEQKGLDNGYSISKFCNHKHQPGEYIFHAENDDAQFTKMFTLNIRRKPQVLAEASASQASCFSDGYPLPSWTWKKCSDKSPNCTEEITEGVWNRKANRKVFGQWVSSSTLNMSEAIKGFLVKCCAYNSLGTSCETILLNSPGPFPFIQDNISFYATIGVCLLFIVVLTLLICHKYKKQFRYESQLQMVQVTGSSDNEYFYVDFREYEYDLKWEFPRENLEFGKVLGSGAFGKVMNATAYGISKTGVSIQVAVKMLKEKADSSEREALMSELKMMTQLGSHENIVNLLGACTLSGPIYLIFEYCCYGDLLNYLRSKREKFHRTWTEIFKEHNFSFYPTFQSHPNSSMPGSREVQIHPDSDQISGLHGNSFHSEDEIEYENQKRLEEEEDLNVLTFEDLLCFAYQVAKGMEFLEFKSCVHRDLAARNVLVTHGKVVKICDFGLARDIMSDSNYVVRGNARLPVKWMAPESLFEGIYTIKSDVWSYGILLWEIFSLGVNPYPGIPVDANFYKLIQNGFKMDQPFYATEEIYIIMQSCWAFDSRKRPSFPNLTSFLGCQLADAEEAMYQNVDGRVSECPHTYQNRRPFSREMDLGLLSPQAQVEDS
Description: Inhibition of NanoLuc-fused FLT3 (unknown origin) transfected in HEK293 cells incubated for 2 hrs by NanoBRET target engagement assay

BaF3 = assay: cells; conditions: Mus musculus, BaF3, 72 h

Work on `COc1ccc(NC(=O)Nc2nnc(Sc3ncnc4oc(-c5ccccc5)cc34)s2)cc1` yielded an IC50 [1] of 0.031 µM, a RatioGI50 [2] of 100 and an Activity (MV4-11 [3]) of 72.92%. It also gave an Activity (MV4-11 [4]) of 12.84%, an Activity (MV4-11 [5]) of 89.29% and an Activity (MV4-11 [6]) of 8.07%. It also gave an Activity (MV4-11 [7]) of 3.85%, an Activity (MV4-11 [8]) of 26.76% and an Activity (MV4-11 [9]) of 4.48%. It also gave an Activity (MV4-11 [10]) of 5.78%, an Activity (MV4-11 [11]) of 38.33% and an Activity (HL-60 [12]) of 37.01%. For the same compound, the Activity (HL-60 [13]) was 48.76%, the Activity (HL-60 [14]) was 13.68% and the Activity (HL-60 [15]) was 8.17%. The Activity (HL-60 [16]) was 35.91%, the Activity (HL-60 [17]) was 13.74% and the Activity (HL-60 [18]) was 48.8%. For the same compound, the Activity (HL-60 [19]) was 37.26%, the Activity (HL-60 [20]) was 7.81% and the inhibition [21] was “Dose-dependent-effect”. The inhibition [22] was “Active”, the IC50 [23] was 0.174 µM and the GI50 (BaF3) was 0.054 µM.
